Data as given in US10765114B2, “4-amino-6-(pyridyl and 2-substitutedphenyl)-picolinates and 6-amino-2-(pyridyl and 2-substitutedphenyl)-pyrimidine-4-carboxylates and their use as herbicides” (Dow AgroSciences LLC, priority 2013, dated 2020).
Read-outs that look alike come from different tables or passages of the source.

Key:
[1] = test system: Key Broadleaf Weed and Crop Species; assay: Post-Emergent Test II (Table 5); format: in vivo; conditions: post-emergence, 336 h; for pest or weed control at 70 g/ha: application rate 70 (kg ai/ha; footnote: g ai/ha); for pest or weed control at 140 g/ha: application rate 140 (kg ai/ha; footnote: g ai/ha)
Method in brief: (§1)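 Growth stage at treatment: first or second true leaf. Application: compound in acetone/DMSO diluted into an adjuvant-containing aqueous mix, sprayed at 187 L/ha at several rates. Assessment: visual 0-100% injury at 14 days against untreated plants.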

[2] = test system: Key Grass and Sedge Weeds as well as Grass Crops; assay: Post-Emergent Test II (Table 6); format: in vivo; conditions: post-emergence, 336 h, 14 days after application; for pest or weed control at 70 g/ha: 70 g ai/ha; for pest or weed control at 140 g/ha: 140 g ai/ha
Method in brief: as §1

[3] = Abutilon theophrasti, ABUTH: velvetleaf (Abutilon theophrasti), read-out: Visual Growth Reduction (%) 14 Days After Application ABUTH
[4] = Amaranthus retroflexus, AMARE: redroot pigweed (Amaranthus retroflexus), read-out: Visual Growth Reduction (%) 14 Days After Application AMARE
[5] = Brassica napus, BRSSS: oilseed rape, canola (Brassica napus), read-out: Visual Growth Reduction (%) 14 Days After Application BRSSS
[6] = Chenopodium album, CHEAL: lambsquarters (Chenopodium album), read-out: Visual Growth Reduction (%) 14 Days After Application CHEAL
[7] = Euphorbia heterophylla, EPHHL: wild poinsettia (Euphorbia heterophylla), read-out: Visual Growth Reduction (%) 14 Days After Application EPHHL
[8] = Helianthus annuus, HELAN: sunflower (Helianthus annuus), read-out: Visual Growth Reduction (%) 14 Days After Application HELAN
[9] = Viola tricolor, VIOTR: wild pansy (Viola tricolor), read-out: Visual Growth Reduction (%) 14 Days After Application VIOTR
[10] = CYPSS, read-out: Visual Growth Reduction (%) 14 Days After Application CYPSS
[11] = DIGSA: crabgrass (Digitaria sanguinalis), read-out: Visual Growth Reduction (%) 14 Days After Application DIGSA
[12] = ECHSS, read-out: Visual Growth Reduction (%) 14 Days After Application ECHSS
[13] = ORYSS (crop), read-out: Visual Growth Reduction (%) 14 Days After Application ORYSS
[14] = SETFA: giant foxtail (Setaria faberi), read-out: Visual Growth Reduction (%) 14 Days After Application SETFA
[15] = SORVU: grain sorghum (Sorghum vulgare), read-out: Visual Growth Reduction (%) 14 Days After Application SORVU
[16] = TRZSS (crop), read-out: Visual Growth Reduction (%) 14 Days After Application TRZSS
[17] = ZEAMX: maize, corn (Zea mays), read-out: Visual Growth Reduction (%) 14 Days After Application ZEAMX

`COC(=O)c1nc(-c2ccc(Cl)nc2OC)cc(N)c1Cl` [Compound 48] gave a pest or weed control at 70 g/ha [1, 3] of 85 to 94%, a pest or weed control at 140 g/ha [1, 3] of 85 to 94% and a pest or weed control at 70 g/ha [1, 4] of 95 to 100%. For the same compound, the pest or weed control at 140 g/ha [1, 4] was 95 to 100%, the pest or weed control at 70 g/ha [1, 5] was 0 to 29% and the pest or weed control at 140 g/ha [1, 5] was 45 to 59%. It also gave a pest or weed control at 70 g/ha [1, 6] of 95 to 100%, a pest or weed control at 140 g/ha [1, 6] of 95 to 100% and a pest or weed control at 70 g/ha [1, 7] of 0 to 29%. It also gave a pest or weed control at 140 g/ha [1, 7] of 0 to 29%, a pest or weed control at 70 g/ha [1, 8] of 85 to 94% and a pest or weed control at 140 g/ha [1, 8] of 85 to 94%. It also gave a pest or weed control at 70 g/ha [1, 9] of 45 to 59%, a pest or weed control at 140 g/ha [1, 9] of 60 to 74% and a pest or weed control at 70 g/ha [2, 10] of 0 to 29%. The pest or weed control at 140 g/ha [2, 10] was 0 to 29%, the pest or weed control at 70 g/ha [2, 11] was 0 to 29% and the pest or weed control at 140 g/ha [2, 11] was 0 to 29%. The pest or weed control at 70 g/ha [2, 12] was 0 to 29%, the pest or weed control at 140 g/ha [2, 12] was 0 to 29% and the pest or weed control at 70 g/ha [2, 13] was 0 to 29%. It also gave a pest or weed control at 140 g/ha [2, 13] of 0 to 29%, a pest or weed control at 70 g/ha [2, 14] of 0 to 29% and a pest or weed control at 140 g/ha [2, 14] of 0 to 29%. It also gave a pest or weed control at 70 g/ha [2, 15] of 0 to 29%, a pest or weed control at 140 g/ha [2, 15] of 0 to 29% and a pest or weed control at 70 g/ha [2, 16] of 0 to 29%. The pest or weed control at 140 g/ha [2, 16] was 0 to 29%, the pest or weed control at 70 g/ha [2, 17] was 0 to 29% and the pest or weed control at 140 g/ha [2, 17] was 45 to 59%. The melting point was 109 to 111 °C.
Compound `COC(=O)c1nc(-c2ccc(C3CC3)nc2)c(F)c(N)c1Cl` [Compound 49] has a pest or weed control at 70 g/ha [1, 3] of 95 to 100%, a pest or weed control at 140 g/ha [1, 3] of 95 to 100% and a pest or weed control at 70 g/ha [1, 4] of 95 to 100%. It also gave a pest or weed control at 140 g/ha [1, 4] of 95 to 100%, a pest or weed control at 70 g/ha [1, 5] of 75 to 84% and a pest or weed control at 140 g/ha [1, 5] of 75 to 84%. It also gave a pest or weed control at 70 g/ha [1, 6] of 95 to 100%, a pest or weed control at 140 g/ha [1, 6] of 95 to 100% and a pest or weed control at 70 g/ha [1, 7] of 95 to 100%. The pest or weed control at 140 g/ha [1, 7] was 95 to 100%, the pest or weed control at 70 g/ha [1, 8] was 95 to 100% and the pest or weed control at 140 g/ha [1, 8] was 95 to 100%. For the same compound, the pest or weed control at 70 g/ha [1, 9] was 30 to 44%, the pest or weed control at 140 g/ha [1, 9] was 45 to 59% and the pest or weed control at 70 g/ha [2, 10] was 95 to 100%. For the same compound, the pest or weed control at 140 g/ha [2, 10] was 95 to 100%, the pest or weed control at 70 g/ha [2, 11] was 75 to 84% and the pest or weed control at 140 g/ha [2, 11] was 75 to 84%. The pest or weed control at 70 g/ha [2, 12] was 95 to 100%, the pest or weed control at 140 g/ha [2, 12] was 95 to 100% and the pest or weed control at 70 g/ha [2, 13] was 30 to 44%. The pest or weed control at 140 g/ha [2, 13] was 30 to 44%, the pest or weed control at 70 g/ha [2, 14] was 85 to 94% and the pest or weed control at 140 g/ha [2, 14] was 85 to 94%. The pest or weed control at 70 g/ha [2, 15] was 85 to 94%, the pest or weed control at 140 g/ha [2, 15] was 85 to 94% and the pest or weed control at 70 g/ha [2, 16] was 45 to 59%. The pest or weed control at 140 g/ha [2, 16] was 45 to 59%, the pest or weed control at 70 g/ha [2, 17] was 95 to 100% and the pest or weed control at 140 g/ha [2, 17] was 95 to 100%. For the same compound, the melting point was 124 to 126 °C.
With `COC(=O)c1nc(-c2cccnc2)c(F)c(N)c1Cl` [Compound 50] the pest or weed control at 70 g/ha [1, 3] was 0 to 29%, the pest or weed control at 140 g/ha [1, 3] was 0 to 29% and the pest or weed control at 70 g/ha [1, 4] was 0 to 29%. The pest or weed control at 140 g/ha [1, 4] was 95 to 100%, the pest or weed control at 70 g/ha [1, 5] was 0 to 29% and the pest or weed control at 140 g/ha [1, 5] was 30 to 44%. The pest or weed control at 70 g/ha [1, 6] was 75 to 84%, the pest or weed control at 140 g/ha [1, 6] was 85 to 94% and the pest or weed control at 70 g/ha [1, 7] was 0 to 29%. For the same compound, the pest or weed control at 140 g/ha [1, 7] was 0 to 29%, the pest or weed control at 70 g/ha [1, 8] was 85 to 94% and the pest or weed control at 140 g/ha [1, 8] was 85 to 94%. The pest or weed control at 70 g/ha [1, 9] was 0 to 29%, the pest or weed control at 140 g/ha [1, 9] was 0 to 29% and the pest or weed control at 70 g/ha [2, 10] was 0 to 29%. The pest or weed control at 140 g/ha [2, 10] was 0 to 29%, the pest or weed control at 70 g/ha [2, 11] was 0 to 29% and the pest or weed control at 140 g/ha [2, 11] was 0 to 29%. The pest or weed control at 70 g/ha [2, 12] was 0 to 29%, the pest or weed control at 140 g/ha [2, 12] was 0 to 29% and the pest or weed control at 70 g/ha [2, 13] was 0 to 29%. The pest or weed control at 140 g/ha [2, 13] was 0 to 29%, the pest or weed control at 140 g/ha [2, 14] was 60 to 74% and the pest or weed control at 70 g/ha [2, 15] was 0 to 29%. It also gave a pest or weed control at 140 g/ha [2, 15] of 0 to 29%, a pest or weed control at 70 g/ha [2, 16] of 0 to 29% and a pest or weed control at 140 g/ha [2, 16] of 0 to 29%. It also gave a pest or weed control at 70 g/ha [2, 17] of 0 to 29%, a pest or weed control at 140 g/ha [2, 17] of 0 to 29% and a melting point of 163 to 164 °C.
